Measurements published in US20080176866A1, “NOVEL HETARYL-PHENYLENEDIAMINE-PYRIMIDINES AS PROTEIN KINASE INHIBITORS” (priority 2006, published 2008).

Tests used:
Format in all cases: biochemical
CDK1/CycB = biological target: T1, CDK1/CycB (Homo sapiens, UniProt P06493); test: CDK1/CycB kinase assay; settings: 0.5 μM ATP, histone IIIS, 33P filter assay
T1 construct: GST; purchased ProQinase GmbH, Freiburg; host or cells: baculovirus-infected insect cells (Sf9)
Experimental: Recombinant CDK1- and CycB-GST fusion proteins, purified from baculovirus-infected insect cells (Sf9), were purchased from ProQinase GmbH, Freiburg. The histone IIIS used as kinase substrate can be purchased from Sigma.
CDK1/CycB (5 ng/μL) was incubated in the presence of various concentrations of test substances (0 μM, and within the range 0.01-100 μM) in 40 μL of assay buffer [50 mM Tris/HCl pH 8.0, 10 mM MgCl2, 0.1 mM Na ortho-vanadate, 1.0 mM dithiothreitol, 0.025% PEG 20000, 0.5 μM ATP, 10 μM histone IIIIS, 0.2 μCi/measurement point ^33P-gamma ATP, 0.05% NP40, 1.25% dimethyl sulphoxide] at 22° C. for 10 min. The reaction was stopped by adding EDTA solution (250 mM, pH 8.0, 15 μl/measurement point).
15 μl of each reaction mixture were loaded onto P30 filter strips (from Wallac), and non-incorporated ^33P-ATP was removed by washing the filter strips three times in 0.5% strength phosphoric acid for 10 min each time. After the filter strips had been dried at 70° C. for 1 hour, the filter strips were covered with scintillator strips (MeltiLex™ A, from Wallac) and baked at 90° C. for 1 hour. The amount of incorporated ^33P (substrate phosphorylation) was determined by scintillation measurement in a gamma radiation counter (Wallac).
The measured data were normalized to 0% inhibition (enzyme reaction without inhibitor) and 100% inhibition (all assay components except enzyme). The IC50 values were determined by means of a 4-parameter fit using the company's own software.

CDK2/CycE = biological target: T2, CDK2/CycE (Homo sapiens, UniProt P24941); test: CDK2/CycE kinase assay (HTRF); settings: 10 μM ATP
T2 construct: GST; purchased ProQinase GmbH, Freiburg; host or cells: baculovirus-infected insect cells (Sf9)
Experimental: The CDK2/CycE inhibitory activity of the substances of this invention was measured in the CDK2/CycE-HTRF assay (HTRF=Homogeneous Time Resolved Fluorescence) described in the following paragraphs.
Recombinant CDK2-GST and CycE-GST fusion proteins purified from baculovirus-infected insect cells (Sf9) were purchased from ProQinase GmbH, Freiburg. The substrate used for the kinase reaction was the biotinylated peptide biotin-Ttds-YISPLKSPYKISEG (C terminus in amide form) which can be purchased for example from JERINI Peptide Technologies (Berlin).
CDK2/CycE was incubated in the presence of various concentrations of test substances in 5 μL of assay buffer [50 mM Tris/HCl pH 8.0, 10 mM MgCl2, 1.0 mM dithiothreitol, 0.1 mM sodium orthovanadate, 10 μM adenosine triphosphate (ATP), 0.75 μM substrate, 0.01% (v/v) Nonidet-P40 (Sigma), 1% (v/v) dimethyl sulphoxide] at 22° C. for 60 min. The concentration of CDK2/CycE was adapted to the particular activity of the enzyme and adjusted so that the assay operated in the linear range. Typical concentrations were in the region of 1 ng/ml. The reaction was stopped by adding 5 μl of a solution of HTRF detection reagents (0.2 μM streptavidin-XLent and 3.4 nM phospho-(Ser) CDKs substrate antibody [product #2324B, Cell Signaling Technology, Danvers, Mass., USA] and 4 nM Prot-A-EuK [protein A labelled with Europium cryptate from C is biointernational, France, product No. 61 PRAKLB]) in aqueous EDTA solution (100 mM EDTA, 800 mM KF, 0.2% (w/v) bovine serum albumin (BSA) in 100 mM HEPES/NaOH pH 7.0).
(§1) The resulting mixture was incubated at 22° C. for 1 h in order to allow formation of a complex of the biotinylated phosphorylated substrate and the detection reagents. The amount of phosphorylated substrate was then estimated by measuring the resonance energy transfer from the Prot-A-EuK to the streptavidin-XLent. For this purpose, the fluorescence emissions at 620 nm and 665 nm after excitation at 350 nm were measured in an HTRF measuring instrument, e.g. a Rubystar (BMG Labtechnologies, Offenburg, Germany) or a Viewlux (Perkin-Elmer). The ratio of the emissions at 665 nm and at 622 nm was taken as a measure of the amount of phosphorylated substrate. The data were normalized (enzymic reaction without inhibitor=0% inhibition, all other assay components but no enzyme=100% inhibition) and IC50 values were calculated with a 4-parameter fit using an inhouse software.

KDR kinase = biological target: T3, KDR kinase (Homo sapiens, UniProt P35968); test: KDR kinase assay (HTRF); settings: KDR kinase-GST, 10 μM ATP
T3 construct: GST; purchased ProQinase GmbH, Freiburg; host or cells: baculovirus-infected insect cells (Sf9)
Experimental: The KDR-inhibitory activity of the substances of this invention was measured in the KDR-HTRF assay (HTRF=Homogeneous Time Resolved Fluorescence) described in the following paragraphs.
Recombinant KDR kinase-GST fusion protein purified from baculovirus-infected insect cells (Sf9) was purchased from ProQinase GmbH, Freiburg. The substrate used for the kinase reaction was the biotinylated peptide biotin-Ahx-DFGLARDMYDKEYYSVG (C terminus in acid form) which can be purchased for example from Biosynthan GmbH (Berlin-Buch, Germany).
KDR kinase was incubated in the presence of various concentrations of test substances in 5 μL of assay buffer [50 mM Hepes/NaOH pH 7.0, 25 mM MgCl2, 5 mM MnCl2, 1.0 mM dithiothreitol, 0.1 mM sodium orthovanadate, 10 μM adenosine triphosphate (ATP), 0.5 μM substrate, 0.001% (v/v) Nonidet-P40 (Sigma), 1% (v/v) dimethyl sulphoxide] at 22° C. for 45 min. The concentration of KDR was adapted to the particular activity of the enzyme and adjusted so that the assay operated in the linear range. The reaction was stopped by adding 5 μl of a solution of HTRF detection reagents (0.1 μM streptavidin-XLent and 2 nM PT66-Eu chelate, a Europium chelate-labelled anti-phospho-tyrosine antibody from Perkin Elmer) in aqueous EDTA solution (125 mM EDTA, 0.2% (w/v) bovine serum albumin (BSA) in 50 mM HEPES/NaOH pH 7.0).
as §1, with “of” for “of a complex of”, “streptavidin-XLent and PT66-Eu chelate.” for “detection reagents.”, “PT66-Eu chelate” for “Prot-A-EuK”

T3 sequence (P35968 807-1356 limits assumed): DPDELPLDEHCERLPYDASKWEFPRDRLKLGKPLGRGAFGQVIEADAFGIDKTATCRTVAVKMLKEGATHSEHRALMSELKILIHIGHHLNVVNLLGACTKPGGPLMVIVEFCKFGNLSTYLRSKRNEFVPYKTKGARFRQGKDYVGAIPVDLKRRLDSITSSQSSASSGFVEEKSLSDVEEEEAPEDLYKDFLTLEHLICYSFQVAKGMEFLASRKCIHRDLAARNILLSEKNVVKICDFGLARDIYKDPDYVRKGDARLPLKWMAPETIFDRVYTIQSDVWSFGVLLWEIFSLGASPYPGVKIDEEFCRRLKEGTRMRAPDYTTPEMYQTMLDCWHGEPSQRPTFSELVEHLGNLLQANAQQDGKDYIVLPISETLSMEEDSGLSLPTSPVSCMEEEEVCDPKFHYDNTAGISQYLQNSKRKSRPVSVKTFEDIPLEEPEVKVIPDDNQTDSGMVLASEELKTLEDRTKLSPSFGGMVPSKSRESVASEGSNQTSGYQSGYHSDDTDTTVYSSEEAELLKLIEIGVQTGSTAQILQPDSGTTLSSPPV
T1 sequence (P06493 whole entry): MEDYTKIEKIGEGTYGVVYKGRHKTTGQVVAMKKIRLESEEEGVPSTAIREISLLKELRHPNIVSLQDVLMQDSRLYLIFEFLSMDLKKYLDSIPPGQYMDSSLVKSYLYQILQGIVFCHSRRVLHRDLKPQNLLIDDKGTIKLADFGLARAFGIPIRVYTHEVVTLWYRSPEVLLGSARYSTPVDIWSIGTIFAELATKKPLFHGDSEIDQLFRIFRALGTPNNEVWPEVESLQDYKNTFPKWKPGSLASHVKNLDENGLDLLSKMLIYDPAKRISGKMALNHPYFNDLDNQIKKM
T1 sequence (P14635 whole entry partner): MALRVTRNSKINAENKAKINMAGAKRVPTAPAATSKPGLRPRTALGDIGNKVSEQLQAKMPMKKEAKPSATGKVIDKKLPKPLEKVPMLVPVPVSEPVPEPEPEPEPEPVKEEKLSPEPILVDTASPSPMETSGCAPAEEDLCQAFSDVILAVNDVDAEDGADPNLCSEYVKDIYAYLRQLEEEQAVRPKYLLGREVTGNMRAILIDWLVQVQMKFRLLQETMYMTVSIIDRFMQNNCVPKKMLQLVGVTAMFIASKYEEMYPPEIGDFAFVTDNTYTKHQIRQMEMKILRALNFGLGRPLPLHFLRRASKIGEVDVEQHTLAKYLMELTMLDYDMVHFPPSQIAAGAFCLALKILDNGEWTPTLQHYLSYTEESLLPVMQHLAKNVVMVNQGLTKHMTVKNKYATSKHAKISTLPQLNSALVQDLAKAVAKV

| IC50 (CDK1/CycB) [nM] | IC50 (CDK2/CycE) [nM] | IC50 (KDR kinase) [nM] | SMILES |
| --- | --- | --- | --- |
| 14 | 2 | 75 | C[C@@H](O)[C@@H](C)Oc1nc(Nc2cccc(Nc3ncccn3)c2)ncc1Br [Example 25] |
| 16 | 2.4 | 32 | C[C@@H](O)[C@@H](C)Oc1nc(Nc2cccc(Nc3nccc(OCCO)n3)c2)ncc1Br [Example 27] |
| > 1000 | 260 | > 20000 | CSc1nc(Nc2ccc(Nc3ccccn3)cc2)ncc1Br [Example 29] |
| – | 5800 | 21 | CC(=O)NCCNc1nc(Nc2cccc(Nc3ncc(Br)c(NCCNC(C)=O)n3)c2)ncc1Br [Example 30] |
| 78 | 6.6 | 50 | C[C@@H](O)[C@@H](C)Nc1nc(Nc2ccc(Oc3cccnc3)cc2)ncc1Br [Example 33] |
| 35 | 9.1 | 100 | C[C@@H](O)[C@@H](C)Nc1nc(Nc2ccc(Oc3ncccn3)cc2)ncc1Br [Example 34] |
| 11 | 1.3 | 41 | C[C@@H](O)[C@@H](C)Nc1nc(Nc2ccc(Sc3nncn3C)cc2)ncc1Br [Example 39] |
| > 1000 | 370 | 7300 | C[C@@H](O)[C@@H](C)Sc1nc(Nc2ccc(Nc3ncc(Cl)c(NCCO)n3)cc2)ncc1Br [Example 44] |

Continued, molecule first:

| SMILES | IC50 (CDK1/CycB) [nM] | IC50 (CDK2/CycE) [nM] | IC50 (KDR kinase) [nM] |
| --- | --- | --- | --- |
| C[C@@H](O)[C@@H](C)Oc1nc(Nc2ccc(Nc3nccc(OCCO)n3)cc2)ncc1Br [Example 8, (2R,3R)-3-(5-Bromo-2-{4-[4-(2-hydroxyethoxy)pyrimidin-2-ylamino]-phenylamino}pyrimidin-4-yloxy)butan-2-ol] | 28 | 2.8 | 44 |
| C[C@@H](O)[C@@H](C)Oc1nc(Nc2ccc(Nc3ncccn3)cc2)ncc1Br [Example 15] | 27 | 2.9 | 74 |
| C[C@@H](O)[C@@H](C)Oc1nc(Nc2ccc(Nc3nccc(N)n3)cc2)ncc1Br [Example 16] | 23 | 2 | 83 |
| C[C@@H](O)[C@@H](C)Oc1nc(Nc2ccc(Nc3nccc(N(C)C)n3)cc2)ncc1Br [Example 17] | 71 | 4.4 | 62 |
| C[C@@H](O)[C@@H](C)Oc1nc(Nc2ccc(Nc3nccc(NCCN(C)C)n3)cc2)ncc1Br [Example 18] | 40 | 5.9 | 140 |
| Cc1cnc(Nc2ccc(Nc3ncc(Br)c(O[C@H](C)[C@@H](C)O)n3)cc2)nc1NCCO [Example 19] | 51 | 2.2 | 100 |
| C[C@@H](O)[C@@H](C)Oc1nc(Nc2ccc(Nc3ncc(Cl)c(NCCO)n3)cc2)ncc1Br [Example 21] | 54 | 2.2 | 73 |
| COc1ccnc(Nc2ccc(Nc3ncc(Br)c(O[C@H](C)[C@@H](C)O)n3)cc2)n1 [Example 22] | 130 | 4.8 | 120 |
| C[C@@H](O)[C@@H](C)Oc1nc(Nc2ccc(Nc3ncc(Br)cn3)cc2)ncc1Br [Example 24] | 110 | 6.2 | 240 |
